Results: patent US20080261902A1, “Pharmaceutical composition containing polydatin and its application” (Shenzhen Neptunus Pharmaceutical Co., Ltd., priority 2005, published 2008)

Tested on: dogs in hemorrhagic shock
Test: Treatment effect of polydatin drug compositions to dogs in hemorrhagic shock (Embodiment 20)
Format: in vivo, Beagle dogs

SMILES: NCCc1ccc(O)c(O)c1 [dopamine]
- average survival time (hour, x ± s) (3.0 mg/kg, continuous intravenous infusion 120 min, long-term survival calculated with 168 hours): 103.00 ± 89.01 h
- survival rate (24 hours, 3.0 mg/kg): 3 number/5
- survival rate (48 hours, 3.0 mg/kg): 3 number/5
- survival rate (72 hours, 3.0 mg/kg): 3 number/5
- pulse pressure difference (FIG. 2) (dogs in hemorrhagic shock, during and after infusion): increasing range is obviously lower than the polydatin groups
